This experiment deals with T1, human FXR (NR1H4) (Homo sapiens, UniProt Q96RI1).
T1 construct: host or cells: CHO (Chinese hamster ovary) reporter cells
T1 sequence (Q96RI1 1-486): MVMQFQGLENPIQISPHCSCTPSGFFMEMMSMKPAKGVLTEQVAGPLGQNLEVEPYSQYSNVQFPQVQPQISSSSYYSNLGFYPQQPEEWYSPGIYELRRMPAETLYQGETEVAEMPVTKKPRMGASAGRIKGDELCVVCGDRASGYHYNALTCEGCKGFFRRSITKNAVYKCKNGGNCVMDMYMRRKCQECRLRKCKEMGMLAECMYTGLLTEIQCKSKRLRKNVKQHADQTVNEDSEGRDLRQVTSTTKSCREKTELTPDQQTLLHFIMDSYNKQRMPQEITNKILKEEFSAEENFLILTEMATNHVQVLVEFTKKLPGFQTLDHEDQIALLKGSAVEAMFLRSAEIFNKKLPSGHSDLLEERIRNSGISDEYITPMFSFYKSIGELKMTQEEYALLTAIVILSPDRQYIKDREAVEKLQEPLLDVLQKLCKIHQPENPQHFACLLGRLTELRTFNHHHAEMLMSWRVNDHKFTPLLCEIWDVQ
Briefly: Human FXR (NR1H4) Assay (Gal4 promoter driven luciferase reporter, CHO cells). Format: cell-based. The conditions noted are these: for pEC50: FXR reporter assay in CHO cells expressing human NR1H4, 22 hours incubation, potency ranges; for Efficacy (%): normalized to CDCA set as 100%, FXR reporter assay in CHO cells. The text has this:
Human FXR (NR1H4) Assay Determination of a ligand mediated Gal4 promoter driven transactivation to quantify ligand binding mediated activation of FXR. FXR Reporter Assay kit purchased from Indigo Bioscience (Catalogue number: IB00601) to determine the potency and efficacy of compound developed by Enanta that can induce FXR activation. The principle application of this reporter assay system is to quantify functional activity of human FXR. The assay utilizes non-human mammalian cells, CHO (Chinese hamster ovary) cells engineered to express human NR1H4 protein (referred to as FXR). Reporter cells also incorporate the cDNA encoding beetle luciferase which catalyzes the substrates and yields photon emission. Luminescence intensity of the reaction is quantified using a plate-reading luminometer, Envision. Reporter Cells include the luciferase reporter gene functionally linked to an FXR responsive promoter. Thus, quantifying changes in luciferase expression in the treated reporter cells provides a sensitive surrogate measure of the changes in FXR activity. […] The assay is according to the manufacturer's instructions. In brief, the assay was performed in white, 96 well plates using final volume of 100 ul containing cells with different doses of compounds. Retrieve Reporter Cells from −80° C. storage. Perform a rapid thaw of the frozen cells by transferring a 10 ml volume of 37° C. cell recovery medium into the tube of frozen cells. Recap the tube of Reporter Cells and immediately place it in a 37° C. water bath for 5-10 minutes. Retrieve the tube of Reporter Cell Suspension from the water bath. Sanitize the outside surface of the tube with a 70% alcohol swab, and then transfer it into the cell culture hood. Dispense 90 μl of cell suspension into each well of the 96-well Assay Plate. Transfer the plate into 37° C. incubator, allowing the cells adherent to the bottom of the well. Dilute compounds in Dilution Plate (DP), and administrate to cells at Assay Plate (AP). DMSO content of the samples was kept at 0.2%. Cells were incubated for additional 22 hours before luciferase activities were measured. Thirty minutes before intending to quantify FXR activity, remove Detection Substrate and Detection Buffer from the refrigerator and place them in a low-light area so that they may equilibrate to room temperature. Remove the plate's lid and discard all media contents by ejecting it into an appropriate waste container. Gently tap the inverted plate onto a clean absorbent paper towel to remove residual droplets. Cells will remain tightly adhered to well bottoms. Add 100 μl of luciferase detection reagent to each well of the assay plate. Allow the assay plate to rest at room temperature for at least 5 minutes following the addition of LDR. Set the instrument (Envision) to perform a single 5 second “plate shake” prior to reading the first assay well. Read time may be 0.5 second (500 mSec) per well.
(In general: Reporter assays use an easily measured gene product as a stand-in for the process of interest.)

Broadly, the pEC50 is the negative decadic logarithm of the EC50, by convention in mol/L. Low values mean a high EC50, high ones a low EC50.

pEC50: −log10 of the molar value.

In the case of `O=C(O)c1ccc2nc(N3CCC(OCc4c(-c5c(Cl)cccc5Cl)noc4C4CC4)CC3)sc2c1` [Compound (1), reference compound], the pEC50 is > 7.00 and the “Efficacy (%)” value is 304%.
Regarding `O=C(NS(=O)(=O)C1CC1)c1ccc2nc(N3CCC(OCc4c(-c5c(Cl)cccc5Cl)noc4C4CC4)CC3)sc2c1` [Example 11], the pEC50 was 6.00 to 7.00 and the “Efficacy (%)” value is 122%.
For `CN(C)S(=O)(=O)NC(=O)c1ccc2nc(N3CCC(OCc4c(-c5c(Cl)cccc5Cl)noc4C4CC4)CC3)sc2c1` [Example 26], in that order: > 7.00 and 129%.

(Values after patent publication US10080742B2, “Isoxazole derivatives as FXR agonists and methods of use thereof” (Enanta Pharmaceuticals, Inc., priority 2016, dated 2018).)
